Test results published in patent US10681909B2, “Herbicidal triazoles” (FMC Corporation, priority 2014, dated 2020).

Key:
[1] = system: poinsettia, wild; assay: Test E postemergence; format: in vivo, Euphorbia heterophylla; conditions: scale 0 to 100
From the text: (§1) Seeds of plant species selected from corn (Zea mays), soybean (Glycine max), lambsquarters (Chenopodium album), poinsettia, wild (wild poinsettia, Euphorbia heterophylla), pigweed, palmer (palmer pigweed, Amaranthus palmeri), waterhemp (common waterhemp, Amaranthus rudis), surinam grass (Brachiaria decumbens), crabgrass, large (large crabgrass, Digitaria sanguinalis), crabgrass, Brazilian (Brazilian crabgrass, Digitaria horizontalis), panicum, fall (fall panicum, Panicum dichotomiflorum), foxtail, giant (giant foxtail, Setaria faberii), foxtail, green (green foxtail, Setaria viridis), goosegrass (Eleusine indica), johnsongrass (Sorghum halepense), ragweed (common ragweed, Ambrosia elatior), barnyardgrass (Echinochloa crus-galli), sandbur (southern sandbur, Cenchrus echinatus), arrowleaf sida (Sida rhombifolia), ryegrass, Italian (Italian ryegrass, Lolium multiflorum), dayflower, VA (Virginia dayflower, Commelina virginica), field bindweed (Convolvulus arvensis), cocklebur (common cocklebur, Xanthium strumarium), morningglory (Ipomoea coccinea), nightshade (eastern black nightshade, Solanum ptycanthum), kochia (Kochia scoparia), nutsedge, yellow (yellow nutsedge, Cyperus esculentus), smartweed (ladysthumb smartweed, Polygonum persicaria), velvetleaf (Abutilon theophrasti), horseweed (Conyza canadensis), and beggarticks (hairy beggarticks, Bidens pilosa), were planted into a silt loam soil and treated preemergence with test chemicals formulated in a non-phytotoxic solvent mixture which included a surfactant.
(§2) At the same time, plants from these crop and weed species and also waterhemp_RES1, (ALS & Triazine resistant common waterhemp, Amaranthus rudis), and waterhemp_RES2, (ALS & HPPD resistant common waterhemp, Amaranthus rudis) were planted in pots containing Sunshine Redi-Earth® planting medium comprising spaghnum peat moss, vermiculite, starter nutrients and dolomitic limestone were treated with postemergence applications of test chemicals formulated in the same manner. Plants ranged in height from 2 to 18 cm for postemergence treatments (1- to 4-leaf stage). Treated plants and controls were maintained in a greenhouse for 14 to 21 d, after which time all species were compared to controls and visually evaluated. Plant response ratings, summarized in Table E, are based on a scale of 0 to 100 where 0 is no effect and 100 is complete control. A dash (-) response means no test result.

[2] = system: cocklebur; assay: Test E preemergence; format: in vivo, Xanthium strumarium; conditions: scale 0 to 100
From the text: as §1, §2

[3] = system: smartweed; assay: Test E preemergence; format: in vivo, Polygonum persicaria; conditions: scale 0 to 100
From the text: as §1, §2

[4] = system: smartweed; assay: Test E postemergence; format: in vivo, Polygonum persicaria; conditions: scale 0 to 100
Method: […]
as §2, with “Plants ranged in height from 2 to 18 cm for postemergence treatments (1- to 4-leaf stage).” left out, “Plant response ratings, summarized in Table E, are based on a scale of 0 to 100 where 0 is no effect and 100 is complete control. A dash (-) response means no test result.” left out

[5] = system: nutsedge, yellow; assay: Test E preemergence; format: in vivo, Cyperus esculentus; conditions: scale 0 to 100
From the text: as §1, §2

[6] = system: crabgrass, large; assay: Test E preemergence; format: in vivo, Digitaria sanguinalis; conditions: scale 0 to 100
From the text: as §1, §2

[7] = system: dayflower, VA; assay: Test E preemergence; format: in vivo, Commelina virginica; conditions: scale 0 to 100
From the text: as §1, §2

[8] = system: ducksalad; assay: Test C flooded paddy test; format: in vivo, Heteranthera limosa; conditions: Flood, applied to paddy water, rating after 13 to 15 d
From the text: (§3) At time of treatment, test pots were flooded to 3 cm above the soil surface, treated by application of test compounds directly to the paddy water, and then maintained at that water depth for the duration of the test. Treated plants and controls were maintained in a greenhouse for 13 to 15 d, after which time all species were compared to controls and visually evaluated. […] A dash (-) response means no test result.

[9] = system: rice; assay: Test C flooded paddy test; format: in vivo, Oryza sativa; conditions: Flood, applied to paddy water, rating after 13 to 15 d
From the text: as §3

[10] = system: sedge, umbrella; assay: Test C flooded paddy test; format: in vivo, Cyperus difformis; conditions: Flood, applied to paddy water, rating after 13 to 15 d
From the text: as §3

[11] = system: barnyardgrass; assay: Test C flooded paddy test; format: in vivo, Echinochloa crus-galli; conditions: Flood, applied to paddy water, rating after 13 to 15 d
From the text: as §3

[12] = system: ragweed; assay: Test E postemergence; format: in vivo, Ambrosia elatior; conditions: scale 0 to 100
From the text: as §1, §2

[13] = system: horseweed; assay: Test E postemergence; format: in vivo, Conyza canadensis; conditions: scale 0 to 100
From the text: as §1, §2

[14] = system: horseweed; assay: Test E preemergence; format: in vivo, Conyza canadensis; conditions: scale 0 to 100
From the text: as §1, §2

SMILES: CCc1nc(-c2ccc(C(F)(F)F)cc2)nn1Cc1ccnc(C(F)(F)F)c1 [Compound 1, 4-[[5-ethyl-3-[4-(trifluoromethyl)phenyl]-1H-1,2,4-triazol-1-yl]methyl]-2-(trifluoromethyl)pyridine]
- Plant response rating ([1]; 16 g ai/ha): 60
- Plant response rating ([1]; 31 g ai/ha): 70
- Plant response rating ([1]; 62 g ai/ha): 75
- Plant response rating ([1]; 125 g ai/ha): 80
- Plant response rating ([1]; 250 g ai/ha): 90
- Plant response rating ([2]; 16 g ai/ha): 0
- Plant response rating ([2]; 31 g ai/ha): 0
- Plant response rating ([2]; 62 g ai/ha): 0
- Plant response rating ([2]; 125 g ai/ha): 10
- Plant response rating ([2]; 250 g ai/ha): 30
- Plant response rating ([3]; 16 g ai/ha): 25
- Plant response rating ([3]; 31 g ai/ha): 40
- Plant response rating ([3]; 62 g ai/ha): 50
- Plant response rating ([3]; 125 g ai/ha): 60
- Plant response rating ([3]; 250 g ai/ha): 80
- Plant response rating ([4]; 125 g ai/ha): 30
- Plant response rating ([4]; 250 g ai/ha): 80
- Plant response rating ([5]; 16 g ai/ha): 0
- Plant response rating ([5]; 31 g ai/ha): 0
- Plant response rating ([5]; 62 g ai/ha): 0
- Plant response rating ([5]; 125 g ai/ha): 0
- Plant response rating ([5]; 250 g ai/ha): 10
- Plant response rating ([6]; 16 g ai/ha): 60
- Plant response rating ([6]; 31 g ai/ha): 75
- Plant response rating ([6]; 62 g ai/ha): 80
- Plant response rating ([6]; 125 g ai/ha): 95
- Plant response rating ([6]; 250 g ai/ha): 100
- Plant response rating ([7]; 16 g ai/ha): 5
- Plant response rating ([7]; 31 g ai/ha): 15
- Plant response rating ([7]; 62 g ai/ha): 25
- Plant response rating ([7]; 125 g ai/ha): 65
- Plant response rating ([7]; 250 g ai/ha): 80

SMILES: Cn1nc(-c2ccc(F)cc2)nc1Oc1cccc(C(F)(F)F)c1 [Compound 5, 3-(4-fluorophenyl)-1-methyl-5-[3-(trifluoromethyl)phenoxy]-1H-1,2,4-triazole]
- Ducksalad plant response rating (0 to 100) ([8]; 31 g ai/ha): 20
- Ducksalad plant response rating (0 to 100) ([8]; 62 g ai/ha): 30
- Ducksalad plant response rating (0 to 100) ([8]; 125 g ai/ha): 40
- Ducksalad plant response rating (0 to 100) ([8]; 250 g ai/ha): 60
- Rice plant response rating (0 to 100) ([9]; 31 g ai/ha): 0
- Rice plant response rating (0 to 100) ([9]; 62 g ai/ha): 0
- Rice plant response rating (0 to 100) ([9]; 125 g ai/ha): 0
- Rice plant response rating (0 to 100) ([9]; 250 g ai/ha): 0
- Sedge, Umbrella plant response rating (0 to 100) ([10]; 31 g ai/ha): 0
- Sedge, Umbrella plant response rating (0 to 100) ([10]; 62 g ai/ha): 0
- Sedge, Umbrella plant response rating (0 to 100) ([10]; 125 g ai/ha): 20
- Sedge, Umbrella plant response rating (0 to 100) ([10]; 250 g ai/ha): 40
- Barnyardgrass plant response rating (0 to 100) ([11]; 31 g ai/ha): 10
- Barnyardgrass plant response rating (0 to 100) ([11]; 62 g ai/ha): 10
- Barnyardgrass plant response rating (0 to 100) ([11]; 125 g ai/ha): 15
- Barnyardgrass plant response rating (0 to 100) ([11]; 250 g ai/ha): 15

SMILES: CCCc1nc(-c2ccc(F)cc2)nn1Cc1ccnc(C(F)(F)F)c1 [Compound 6, 4-[[3-(4-fluorophenyl)-5-propyl-1H-1,2,4-triazol-1-yl]methyl]-2-(trifluoromethyl)pyridine]
- Plant response rating ([2]; 16 g ai/ha): 0
- Plant response rating ([2]; 31 g ai/ha): 0
- Plant response rating ([2]; 62 g ai/ha): 0
- Plant response rating ([2]; 250 g ai/ha): 10
- Plant response rating ([3]; 16 g ai/ha): 20
- Plant response rating ([3]; 31 g ai/ha): 50
- Plant response rating ([3]; 62 g ai/ha): 60
- Plant response rating ([3]; 125 g ai/ha): 95
- Plant response rating ([3]; 250 g ai/ha): 95
- Plant response rating ([5]; 16 g ai/ha): 0
- Plant response rating ([5]; 31 g ai/ha): 0
- Plant response rating ([5]; 62 g ai/ha): 15
- Plant response rating ([5]; 125 g ai/ha): 30
- Plant response rating ([5]; 250 g ai/ha): 40
- Plant response rating ([6]; 62 g ai/ha): 90
- Plant response rating ([6]; 125 g ai/ha): 100
- Plant response rating ([6]; 250 g ai/ha): 100
- Plant response rating ([7]; 16 g ai/ha): 10
- Plant response rating ([7]; 31 g ai/ha): 60
- Plant response rating ([7]; 62 g ai/ha): 70
- Plant response rating ([7]; 125 g ai/ha): 80
- Plant response rating ([7]; 250 g ai/ha): 90

SMILES: CCOc1nc(-c2ccc(F)cc2)nn1Cc1ccnc(C(F)(F)F)c1 [Compound 8, 4-[[5-ethoxy-3-(4-fluorophenyl)-1H-1,2,4-triazol-1-yl]methyl]-2-(trifluoromethyl)pyridine]
- Plant response rating ([5]; 62 g ai/ha): 25
- Plant response rating ([5]; 125 g ai/ha): 35
- Plant response rating ([6]; 62 g ai/ha): 100
- Plant response rating ([6]; 125 g ai/ha): 100
- Plant response rating ([7]; 62 g ai/ha): 65
- Plant response rating ([7]; 125 g ai/ha): 95

SMILES: CCOc1nc(-c2ccccc2)nn1Cc1ccnc(C(F)(F)F)c1 [Compound 27]
- Plant response rating ([5]; 16 g ai/ha): 0
- Plant response rating ([5]; 31 g ai/ha): 0
- Plant response rating ([5]; 62 g ai/ha): 0
- Plant response rating ([5]; 125 g ai/ha): 15
- Plant response rating ([12]; 16 g ai/ha): 50
- Plant response rating ([12]; 31 g ai/ha): 50
- Plant response rating ([12]; 62 g ai/ha): 50
- Plant response rating ([12]; 125 g ai/ha): 60
- Plant response rating ([6]; 16 g ai/ha): 98
- Plant response rating ([6]; 31 g ai/ha): 100
- Plant response rating ([6]; 62 g ai/ha): 100
- Plant response rating ([6]; 125 g ai/ha): 100
- Plant response rating ([7]; 16 g ai/ha): 10
- Plant response rating ([7]; 31 g ai/ha): 10
- Plant response rating ([7]; 62 g ai/ha): 10
- Plant response rating ([7]; 125 g ai/ha): 50

SMILES: COc1nc(-c2ccc(Cl)cc2)nn1Cc1ccnc(C(F)(F)F)c1 [Compound 28]
- Plant response rating ([13]; 31 g ai/ha): 20
- Plant response rating ([13]; 62 g ai/ha): 20
- Plant response rating ([13]; 125 g ai/ha): 35
- Plant response rating ([13]; 250 g ai/ha): 40
- Plant response rating ([12]; 31 g ai/ha): 40
- Plant response rating ([12]; 62 g ai/ha): 40
- Plant response rating ([12]; 125 g ai/ha): 40
- Plant response rating ([12]; 250 g ai/ha): 50

SMILES: Fc1ccc(-c2nc(OCC(F)(F)F)n(Cc3ccnc(C(F)(F)F)c3)n2)cc1 [Compound 30]
- Plant response rating ([14]; 31 g ai/ha): 100
- Plant response rating ([14]; 62 g ai/ha): 100
- Plant response rating ([14]; 125 g ai/ha): 100
- Plant response rating ([14]; 250 g ai/ha): 100
- Plant response rating ([5]; 31 g ai/ha): 0
- Plant response rating ([5]; 62 g ai/ha): 0
- Plant response rating ([5]; 125 g ai/ha): 0
- Plant response rating ([5]; 250 g ai/ha): 0
- Plant response rating ([12]; 31 g ai/ha): 65
- Plant response rating ([12]; 62 g ai/ha): 70
- Plant response rating ([12]; 125 g ai/ha): 75
- Plant response rating ([12]; 250 g ai/ha): 80
- Plant response rating ([6]; 31 g ai/ha): 98
- Plant response rating ([6]; 62 g ai/ha): 98
- Plant response rating ([6]; 125 g ai/ha): 100
- Plant response rating ([6]; 250 g ai/ha): 100
- Plant response rating ([7]; 31 g ai/ha): 5
- Plant response rating ([7]; 62 g ai/ha): 10
- Plant response rating ([7]; 125 g ai/ha): 25
- Plant response rating ([7]; 250 g ai/ha): 65
